# According to patent US6686393B1, “Pharmaceutical compositions having antiviral activity against human cytomegalovirus” (Murdock International Corporation, priority 1990, dated 2004):
# Entries after “also recorded” stand apart in the source; their conditions may differ. Like-named read-outs stand apart in the source and are kept apart here.
# What was measured:
# [1] = test system: human cytomegalovirus (HCMV), strain AD-169; test: Antiviral test (plaque reduction) versus HCMV, strain AD-169, in MRC-5 cells; type: cell-based; conditions: for Number of Plaques: average of two wells; for inhibition at 0.1 µg/mL: Human betaherpesvirus 5, AD169, MRC5, 0.1 μg/ml; for inhibition at 0.32 µg/mL: Human betaherpesvirus 5, AD169, MRC5, 0.32 μg/ml; for inhibition at 1 µg/mL: Human betaherpesvirus 5, AD169, MRC5, 1.0 μg/ml; for Activity in initial screening against HCMV in vitro: in words
# [2] = test system: HCMV, strain C8805-37 (DHPG-resistant); test: microbe, parasite or virus in culture; type: cell-based, human cytomegalovirus
# [3] = test system: murine cytomegalovirus, strain Smith MSGV; test: Antiviral test (plaque reduction) versus murine cytomegalovirus, strain Smith MSGV, in 3T3 cells; type: cell-based; conditions: Example 8
# 3T3 cells = conditions: mouse
# HCMV, strain AD-169 = test: Virucidal test versus HCMV, strain AD-169; type: cell-based, human cytomegalovirus; conditions: in words
# [4] = test system: human cytomegalovirus (HCMV) strain AD-169; test: Antiviral effect of different exposure times, HCMV strain AD-169 (plaque reduction); type: cell-based
# [5] = Example 1, DMSO stock, read-out: % Inhibition
# [6] = Example 2, read-out: Percent Inhibition of Plaque Numbers (Compared to Virus Controls)
# [7] = Human betaherpesvirus 5, MRC5, read-out: Percent Inhibition Compared to Controls
# [8] = 0.32 μg/ml (second line so printed, r16, below 0.1)
# [9] = Example 3, cells exposed 4 days
smiles,measurement,setting,value
"Cc1cc(O)c2c(=O)c3c(O)cc(O)c4c5c(O)cc(O)c6c(=O)c7c(O)cc(C)c8c1c2c(c34)c(c78)c65 [Hypericin, hypericin]",Number of Plaques,"[1]; 0.0032 μg/ml, Example 1, DMSO stock",72
same,Number of Plaques,"[1]; 0.1 μg/ml, Example 1, DMSO stock",72
same,Number of Plaques,"[1]; 0.32 μg/ml, Example 1, DMSO stock",53
same,Number of Plaques,"[1]; 1.0 μg/ml, Example 1, DMSO stock",53
same,Number of Plaques,"[1]; 3.2 μg/ml, Example 1, DMSO stock",6
same,Number of Plaques,"[1]; 10 μg/ml, Example 1, DMSO stock",0
same,inhibition at 0.0032 µg/mL,"[1]; Human betaherpesvirus 5, AD169, MRC5, 0.0032 μg/ml, Example 1, DMSO stock",9%
same,inhibition at 0.01 µg/mL,"[1]; Human betaherpesvirus 5, AD169, MRC5, 0.01 μg/ml, Example 2, read-out: Percent Inhibition of Plaque Numbers (Compared to Virus Controls)",0%
same,inhibition at 0.032 µg/mL,"[1]; Human betaherpesvirus 5, AD169, MRC5, 0.032 μg/ml, Example 2, read-out: Percent Inhibition of Plaque Numbers (Compared to Virus Controls)",0%
same,inhibition at 0.1 µg/mL,[1]; [5],9%
same,inhibition at 0.1 µg/mL,[1]; [6],0%
same,inhibition at 0.32 µg/mL,[1]; [5],33%
same,inhibition at 0.32 µg/mL,[1]; [6],0%
same,inhibition at 1 µg/mL,[1]; [5],33%
same,inhibition at 1 µg/mL,[1]; [6],63%
same,inhibition at 3.2 µg/mL,"[1]; Human betaherpesvirus 5, AD169, MRC5, 3.2 μg/ml, Example 1, DMSO stock, read-out: % Inhibition",92%
same,inhibition at 10 µg/mL,"[1]; Human betaherpesvirus 5, AD169, MRC5, 10 μg/ml, Example 1, DMSO stock, read-out: % Inhibition",100%
same,Activity in initial screening against HCMV in vitro,[1],active
same,inhibition at 10 µg/mL,"[2]; Human betaherpesvirus 5, MRC5, 96 h, read-out: Percent Inhibition Compared to Controls",98%
same,inhibition at 0.01 µg/mL,[2]; [7],0%
same,inhibition at 0.032 µg/mL,[2]; [7],0%
same,inhibition at 0.1 µg/mL,[2]; [7],0%
same,inhibition at 0.32 µg/mL,[2]; [7],18%
same,inhibition at 1 µg/mL,[2]; [7],52%
same,inhibition at 3.2 µg/mL,[2]; [7],93%
same,% Reduction,[3]; 0.1 μg/ml,0%
same,Number of Plaques,[3]; 0.1 μg/ml,19
same,% Reduction,[3]; 0.32 μg/ml (row r14),0%
same,Number of Plaques,[3]; 0.32 μg/ml (row r14),22
same,% Reduction,[3]; [8],0%
same,Number of Plaques,[3]; [8],25
same,% Reduction,[3]; 1.0 μg/ml,0%
same,Number of Plaques,[3]; 1.0 μg/ml,19
same,% Reduction,[3]; 3.2 μg/ml,0%
same,Number of Plaques,[3]; 3.2 μg/ml,15
same,% Reduction,[3]; 10 μg/ml,100%
same,Number of Plaques,[3]; 10 μg/ml,0
same,CD50,"MRC-5 cells; Example 1, DMSO stock",≈10 μg/ml
same,CD50,MRC-5 cells; [9],˜10 μg/ml
same,CD50,3T3 cells,>10 µg/mL
"Cc1cc(O)c2c(c1)C(C1c3cc(C)cc(O)c3C(=O)c3c(O)cc(O)cc31)c1cc(O)cc(O)c1C2=O (stereo not shown) [Emodin Bianthrone (mixed), emodin bianthrone]",Percent Inhibition of Plaque Numbers (Compared to Virus Controls),"[1]; 0.01 μg/ml, Example 2",0%
same,Percent Inhibition of Plaque Numbers (Compared to Virus Controls),"[1]; 0.032 μg/ml, Example 2",0%
same,Percent Inhibition of Plaque Numbers (Compared to Virus Controls),"[1]; 0.1 μg/ml, Example 2",0%
same,Percent Inhibition of Plaque Numbers (Compared to Virus Controls),"[1]; 0.32 μg/ml, Example 2",0%
same,Percent Inhibition of Plaque Numbers (Compared to Virus Controls),"[1]; 1.0 μg/ml, Example 2",100%
same,Percent Inhibition of Plaque Numbers (Compared to Virus Controls),"[1]; 3.2 μg/ml, Example 2",toxic
same,Percent Inhibition of Plaque Numbers (Compared to Virus Controls),"[1]; 10 μg/ml, Example 2, ethanol stock (protohypericin in DMSO), cells exposed 6 or more days",toxic
same,Activity in initial screening against HCMV in vitro,[1],active
same,Activity against HCMV,[1]; statement in words on the plaque reduction results,show activity; also recorded: good biological activity
same,Activity against DHPG resistant HCMV strain,[2],retain essentially the same activity
same,Virucidal activity against HCMV,"HCMV, strain AD-169",negligible virucidal activity
same,Plaque reduction,[4]; 4 hour exposure to the cells,~60%
same,Exposure time at which complete inhibition of plaques is seen,[4]; concentration chosen to cause 100% plaque reduction on full exposure,6 h
same,Antiviral effect,[4]; only 2 hours of exposure,no effect
same,CD50,"MRC-5 cells; Example 2, cells exposed 6 or more days",1.1 µg/mL
same,CD50,MRC-5 cells; [9],1.8 µg/mL
same,CD50,"MRC-5 cells; Table 9 summary, two values = two experiments",1.1 µg/mL
same,CD50,"MRC-5 cells; Table 10 summary, DHPG resistant HCMV test",1.8 µg/mL
